Source: publication PMC5769417, “Single- and Multiple-Dose Trials to Determine the Pharmacokinetics, Safety, Tolerability, and Sex Effect of Oral Ginsenoside Compound K in Healthy Chinese Volunteers” (Frontiers in Pharmacology, 2018)
Where two headings read alike, the source gives them in different places. Marks after values point to notes of the source that are not given here.

What was measured:
[1] = Single-dose trial, plasma pharmacokinetics; assay type: in vivo, human; details: for Tmax / half-life / AUC(0-inf) / AUC(0-t) / MRT inf / MRT last / Cmax: both sexes, human, plasma; for Cmax: read-out: Cmax
Protocol: Single-dose pharmacokinetics: The single-dose trial was performed first. […] Drinking before and after medication was prohibited for 2 h, but the amount and time of drinking were not strictly controlled at other times. All subjects had standard lunch and dinner (unified light diet) after medication 4 and 10 h. Single-dose pharmacokinetics: […] We preserved 8 ml specimens into 10 ml centrifuge tubes and stored at −70°C for PK assessment. All samples were preserved at −70°C and analyzed with a LC-MS/MS (API 4000 LC-MS/MS, ABI Company, Foster City, CA, USA) at the Institute of Clinical Pharmacology, Central South University (Changsha, China). […] An aqueous solution of a stable internal standard (IS for CK: digoxin, Shijiaoke Biological Technology Co. Ltd., Beijing, China; IS for PPD: coumarin, Sigma-Aldrich, St. Louis, USA) and 1 M phosphate buffer were added to 0.5 ml of thawed sample, and analytical standards and quality control (QC) samples were prepared in the same matrix. All samples were treated with 2 ml of methyl tert-butyl ether (MTBE, CNW technologies GmbH, Duesseldorf, Germany) to precipitate the bulk of plasma proteins. After mechanical shock by mixing for 10 min and a subsequent centrifugation (4,000 rpm, 4°C, 10 min), 1.4 ml of the supernatant was transferred and blow-dried with nitrogen in a water bath at 40°C. Lastly, the residue was dissolved in 100 μl of mobile phase and then was subjected to a mechanical shock by mixing, and centrifuged. The supernatant was subsequently injected into the column for analysis. […] Accuracy and precision of the assay were determined by evaluating the performance of the assay controls. Over the quantification range, the accuracy of the QC samples varied from 85 to 115% and the intra- and inter-assay imprecision was <15%. PK parameters were derived according to noncompartmental analysis and actual elapsed time from dosing by WinNonlin version 6.1 (Pharsight Corporation, Mountain View, CA, USA). […] The area under the curve (AUC) from time zero to the last time point (AUClast) and the AUC extrapolated to infinity (AUCinf) were calculated using the linear trapezoidal rule. The slope (elimination rate constant, K) of the terminal phase of the plasma concentration-time profile was determined, using a weighting factor of 1, by the method of least squares (log-linear regression of at least three data points). The t1/2 was estimated as (ln2)/K. […] The apparent volume of distribution (V/F) was equal to (CL/F)/K. The mean residence time (MRT) was calculated as the area under the first moments curve (AUMC) divided by AUC. The dose-normalized PK parameters e.g., Cmax/D and AUClast/D, were obtained by dividing each PK result by the administered dose. The cumulative excretion rate was calculated as the amount of unchanged drug in the urine over a time interval divided by the dose and was expressed as thousand points (‰).

[2] = Phase 0 cross-over trial, sex differences in pharmacokinetics; assay type: in vivo, human; details: phase 0 trial; for half-life / Tmax: human, plasma, oral; for Tmax: read-out: Tmax, median (range); for Cmax/D, dose-normalized Cmax: in ng·ml⁻¹·mg⁻¹
Protocol: Cmax/D, dose-normalized Cmax value; Tmax, time to maximum plasma concentration; t1/2, terminal half-life; AUClast/D, dose-normalized AUClast value; AUCinf/D, dose-normalized AUCinf value; All values are presented as mean ± SD, except for Tmax, which is expressed as median (range). SD, standard deviation. PK parameters were compared between male and female by independent-sample t-test. A non-parametric test was performed on the Tmax and t1/2. * Compared with Male, p < 0.05. These were the results of phase 0 trial, which was a cross-over clinical trial and included 12 males and 12 females.

CYP3A4 = tested on: CYP3A4; parameters: method as in Xiao et al., 2016; details: human liver microsomes, human recombinant CYPs; ref Xiao et al., 2016; cited from earlier work
beagle dogs = details: cited from earlier work
[3] = single-dose trial, 25 mg oral, fasting
[4] = single-dose trial, 50 mg oral, fasting
[5] = single-dose trial, 100 mg oral, fasting
[6] = single-dose trial, 200 mg oral, fasting
[7] = single-dose trial, 400 mg oral, fasting
[8] = single-dose trial, 600 mg oral, fasting
[9] = single-dose trial, 800 mg oral, fasting

In the case of `CC(C)=CCC[C@](C)(OC1O[C@H](CO)[C@@H](O)[C@H](O)[C@H]1O)[C@H]1CC[C@]2(C)[C@@H]1[C@H](O)C[C@@H]1[C@@]3(C)CC[C@H](O)C(C)(C)[C@@H]3CC[C@]12C` (stereo partly drawn) [CK, 20-O-beta-D-glucopyranosyl-20(S)-protopanaxadiol], the Tmax ([1]; oral, both trials, all doses, read-out: range of time to maximum concentration (Tmax)) is reported as 1.5 to 6 h, the Tmax ([1]; oral, medians, both trials, read-out: Tmax in this study) is reported as 2.5 to 3.8 h and the half-life ([1]; oral, single-dose trial, 25–800 mg, read-out: mean t1/2 across the dose groups) is reported as 13.5 to 26.2 h. The Tmax ([1]; oral, single-dose trial, 25–800 mg, read-out: median Tmax across the dose groups) was 2.5 to 3.3 h, the Tmax ([1]; po, 25 mg, single-dose trial, 25 mg oral, fasting, read-out: Tmax, median (range)) was 3 h and the Tmax ([1]; po, 50 mg, single-dose trial, 50 mg oral, fasting, read-out: Tmax, median (range)) was 3 h. For the same molecule, the Tmax ([1]; po, 100 mg, single-dose trial, 100 mg oral, fasting, read-out: Tmax, median (range)) was 3 h, the Tmax ([1]; po, 200 mg, single-dose trial, 200 mg oral, fasting, read-out: Tmax, median (range)) was 3.3 h and the Tmax ([1]; po, 400 mg, single-dose trial, 400 mg oral, fasting, read-out: Tmax, median (range)) was 3 h. For the same molecule, the AUC(0-inf) [1, 3] was 1270 ± 276 ng·h/mL, the AUC(0-t) [1, 3] was 1230 ± 267 ng·h/mL and the MRT inf [1, 3] was 10.9 ± 1.9 h. The MRT last [1, 3] was 8.9 ± 1.3 h, the Cmax [1, 3] was 175 ± 35.1 ng/mL and the half-life ([1]; single-dose trial, 25 mg oral, fasting, read-out: t1/2 (converted)) was 13.5 ± 0.6 h. The AUC(0-inf) [1, 4] was 2250 ± 861 ng·h/mL, the AUC(0-t) [1, 4] was 2120 ± 770 ng·h/mL and the MRT inf [1, 4] was 12.5 ± 2.4 h. For the same molecule, the MRT last [1, 4] was 9.1 ± 0.7 h, the Cmax [1, 4] was 300 ± 98.5 ng/mL and the half-life ([1]; single-dose trial, 50 mg oral, fasting, read-out: t1/2 (converted)) was 15.9 ± 4.2 h. For the same molecule, the AUC(0-inf) [1, 5] was 2820 ± 1440 ng·h/mL, the AUC(0-t) [1, 5] was 2760 ± 1420 ng·h/mL and the MRT inf [1, 5] was 13.7 ± 1 h. For the same molecule, the MRT last [1, 5] was 11.4 ± 0.9 h, the Cmax [1, 5] was 351 ± 180 ng/mL and the half-life ([1]; single-dose trial, 100 mg oral, fasting, read-out: t1/2 (converted)) was 22.4 ± 3.3 h. For the same molecule, the AUC(0-inf) [1, 6] was 6090 ± 3600 ng·h/mL, the AUC(0-t) [1, 6] was 5960 ± 3520 ng·h/mL and the MRT inf [1, 6] was 13.8 ± 1.6 h. It also gave an MRT last [1, 6] of 11.5 ± 1.4 h, a Cmax [1, 6] of 734 ± 408 ng/mL and a half-life ([1]; single-dose trial, 200 mg oral, fasting, read-out: t1/2 (converted)) of 21.6 ± 5.5 h. It also gave an AUC(0-inf) [1, 7] of 8240 ± 2050 ng·h/mL, an AUC(0-t) [1, 7] of 8100 ± 2020 ng·h/mL and an MRT inf [1, 7] of 14 ± 1.5 h. The MRT last [1, 7] was 11.9 ± 1.1 h, the Cmax [1, 7] was 1030 ± 295 ng/mL and the half-life ([1]; single-dose trial, 400 mg oral, fasting, read-out: t1/2 (converted)) was 22.3 ± 4 h. The AUC(0-inf) [1, 8] was 9280 ± 4240 ng·h/mL, the AUC(0-t) [1, 8] was 9090 ± 4200 ng·h/mL and the MRT inf [1, 8] was 15.9 ± 2.8 h. It also gave an MRT last [1, 8] of 12.7 ± 0.9 h, a Cmax [1, 8] of 1160 ± 466 ng/mL and a half-life ([1]; single-dose trial, 600 mg oral, fasting, read-out: t1/2 (converted)) of 26.2 ± 6.3 h. For the same molecule, the AUC(0-inf) [1, 9] was 9200 ± 4180 ng·h/mL, the AUC(0-t) [1, 9] was 8990 ± 4100 ng·h/mL and the MRT inf [1, 9] was 14.7 ± 2.6 h. For the same molecule, the MRT last [1, 9] was 12 ± 1.8 h, the Cmax [1, 9] was 1180 ± 445 ng/mL and the half-life ([1]; single-dose trial, 800 mg oral, fasting, read-out: t1/2 (converted)) was 25.7 ± 3 h. It also gave a CL/F [1, 3] of 20.5 ± 4.7 l·h ^−1, a V/F [1, 3] of 397 ± 86 L and a CL/F [1, 4] of 25.9 ± 11.2 l·h ^−1. For the same molecule, the V/F [1, 4] was 559 ± 185 L, the CL/F [1, 5] was 44.5 ± 21.6 l·h ^−1 and the V/F [1, 5] was 1381 ± 546 L. For the same molecule, the CL/F [1, 6] was 47.7 ± 31.2 l·h ^−1, the V/F [1, 6] was 1287 ± 563 L and the CL/F [1, 7] was 51.2 ± 12.3 l·h ^−1. For the same molecule, the V/F [1, 7] was 1613 ± 379 L, the CL/F [1, 8] was 76.1 ± 32.1 l·h ^−1 and the V/F [1, 8] was 3057 ± 2094 L. The CL/F [1, 9] was 106 ± 50.3 l·h ^−1, the V/F [1, 9] was 3993 ± 2136 L and the half-life ([2]; Female (n = 12)) was 6.7 ± 1.2 h. It also gave a Tmax ([2]; Female (n = 12)) of 2.8 h, a half-life ([2]; Male (n = 12)) of 6.1 ± 1.1 h and a Tmax ([2]; Male (n = 12)) of 3.3 h. The “AUCinf/D, dose-normalized AUCinf” value ([2]; Female (n = 12)) was 2016.33 ± 1124.90*, the “AUClast/D, dose-normalized AUClast” value ([2]; Female (n = 12)) was 1984.33 ± 1809.10* and the “Cmax/D, dose-normalized Cmax” value ([2]; Female (n = 12)) was 24.87 ± 8.23*. For the same molecule, the “AUClast/D, dose-normalized AUClast” value ([2]; Male (n = 12)) was 387.86 ± 174.14, the “Cmax/D, dose-normalized Cmax” value ([2]; Male (n = 12)) was 16.44 ± 2.82 and the “inhibition of CYP3A4” value (CYP3A4) was “moderate inhibitor”. The “substrate of CYP3A4” value (CYP3A4) was “substrate”, the “No observed adverse effect level (NOAEL)” value (beagle dogs) was 7.5 mg/kg and the “dose at which diarrhea symptom occurred” value (beagle dogs; long-term toxicity test) was 75 mg/kg.
